Measurements taken from patent US10160755B2 (Plexxikon Inc., priority 2015, dated 2018).

target: T1, BA/F3-FLT3-ITD + F691L cells (Homo sapiens, UniProt P36888, F691L, cells depend on it, form not given); test: BA/F3-FLT3-ITD + F691L cell proliferation assay (CellTiter-Glo); assay type: cell-based, murine; details: BaF3 FLT3 ITD/F691L cells; read-out: Cell Activity (IC50 μM) BaF3_FLT3_ITD/F691L
T1 sequence (P36888 1-993 F691L): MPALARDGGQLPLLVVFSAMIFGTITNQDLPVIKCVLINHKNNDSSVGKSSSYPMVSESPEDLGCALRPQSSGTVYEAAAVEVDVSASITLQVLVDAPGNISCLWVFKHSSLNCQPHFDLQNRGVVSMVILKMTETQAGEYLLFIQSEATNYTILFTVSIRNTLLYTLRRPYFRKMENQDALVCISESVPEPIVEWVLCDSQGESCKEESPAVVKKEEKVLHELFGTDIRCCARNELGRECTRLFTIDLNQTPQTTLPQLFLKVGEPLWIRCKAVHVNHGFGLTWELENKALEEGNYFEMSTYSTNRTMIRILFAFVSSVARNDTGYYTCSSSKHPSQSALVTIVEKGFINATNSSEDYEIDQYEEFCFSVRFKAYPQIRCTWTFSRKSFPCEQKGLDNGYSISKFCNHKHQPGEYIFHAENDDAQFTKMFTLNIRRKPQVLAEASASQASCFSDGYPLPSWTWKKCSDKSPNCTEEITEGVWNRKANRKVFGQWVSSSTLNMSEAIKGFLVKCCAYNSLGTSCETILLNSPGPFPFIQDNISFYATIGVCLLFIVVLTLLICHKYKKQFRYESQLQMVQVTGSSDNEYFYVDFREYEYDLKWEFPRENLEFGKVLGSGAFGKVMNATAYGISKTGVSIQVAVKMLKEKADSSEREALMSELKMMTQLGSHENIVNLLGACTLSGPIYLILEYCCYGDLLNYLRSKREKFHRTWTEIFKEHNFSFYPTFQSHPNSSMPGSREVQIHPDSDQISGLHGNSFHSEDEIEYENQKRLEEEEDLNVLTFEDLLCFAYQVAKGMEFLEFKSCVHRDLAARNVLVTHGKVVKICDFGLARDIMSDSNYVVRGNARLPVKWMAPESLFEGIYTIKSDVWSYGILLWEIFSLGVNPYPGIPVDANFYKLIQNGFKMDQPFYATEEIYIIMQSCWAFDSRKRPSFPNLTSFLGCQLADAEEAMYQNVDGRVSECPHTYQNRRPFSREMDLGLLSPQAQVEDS
Outline: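 Three-day growth assay, IC50 from CellTiter-Glo ATP luminescence vs concentration. Compounds at 10 to 0.0046 μM (1:3 steps, final DMSO 0.2%) on 1×10^4 cells/well. Cells are IL-3-independent BA/F3 lines engineered to express full-length FLT3-ITD with the D835Y or the F691L mutation.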

For `CC(C)(C)n1cnc2ccc(-c3c[nH]c4ncc(-c5ccnc(N6CCCCS6(=O)=O)c5)nc34)cc21` [P-309, 2-[4-[7-(3-tert-butylbenzimidazol-5-yl)-5H-pyrrolo[2,3-b]pyrazin-2-yl]-2-pyridyl]thiazinane 1,1-dioxide], which GI50 is on record?
Its GI50 is 0.0001 to 1 µM.

How did the GI50 turn out when `O=S1(=O)CCCN1c1ccc(-c2cnc3[nH]cc(-c4ccc5ncn(C6CCCNC6)c5c4)c3c2)cc1` (stereo not drawn) [P-319, 2-[4-[3-[3-(3-piperidyl)benzimidazol-5-yl]-1H-pyrrolo[2,3-b]pyridin-5-yl]phenyl]-1,2-thiazolidine 1,1-dioxide] was run?
The GI50 was 0.0001 to 1 µM.

`COc1cnc2[nH]cc(-c3ccc4ncn(C5CCCNC5)c4c3)c2c1` (stereo not drawn) [P-079, 5-methoxy-3-[3-(3-piperidyl)benzimidazol-5-yl]-1H-pyrrolo[2,3-b]pyridine] was tested. Which GI50 did it give?
Its GI50 is 0.0001 to 1 µM.

How did the GI50 turn out when `c1cc(-c2cnc3[nH]cc(-c4ccc5ncn(C6CCCNC6)c5c4)c3c2)cc(N2CCOCC2)c1` (stereo not drawn) [P-317, 4-[3-[3-[3-(3-piperidyl)benzimidazol-5-yl]-1H-pyrrolo[2,3-b]pyridin-5-yl]phenyl]morpholine] was run?
The GI50 was 0.0001 to 1 µM.

How did the GI50 turn out when `Cc1ncc(C#Cc2cnc3[nH]cc(-c4ccc5ncn(C6CCCNC6)c5c4)c3n2)cn1` (stereo not drawn) [P-285, 2-[2-(2-methylpyrimidin-5-yl)ethynyl]-7-[3-(3-piperidyl)benzimidazol-5-yl]-5H-pyrrolo[2,3-b]pyrazine] was run?
The GI50 was 0.0001 to 1 µM.

Which GI50 does the source give for `O=S1(=O)CCCN1c1cc(-c2cnc3[nH]cc(-c4ccc5ncn(C6CCCNC6)c5c4)c3n2)ccn1` (stereo not drawn) [P-295, 2-[4-[7-[3-(3-piperidyl)benzimidazol-5-yl]-5H-pyrrolo[2,3-b]pyrazin-2-yl]-2-pyridyl]-1,2-thiazolidine 1,1-dioxide] here?
Its GI50 is 0.0001 to 1 µM.

`CN1CCN(c2ccc(-c3cnc4[nH]cc(-c5ccc6ncn(C7CCCNC7)c6c5)c4n3)cc2)CC1` (stereo not drawn) [P-344, 2-[4-(4-methylpiperazin-1-yl)phenyl]-7-[3-(3-piperidyl)benzimidazol-5-yl]-5H-pyrrolo[2,3-b]pyrazine] was tested. Which GI50 did it give?
The GI50 was 0.0001 to 1 µM.

How did the GI50 turn out when `COc1cc(-c2cnc3[nH]cc(-c4ccc5ncn(C6CCCN(S(C)(=O)=O)C6)c5c4)c3n2)ccn1` (stereo not drawn) [P-281, 2-(2-methoxy-4-pyridyl)-7-[3-(1-methylsulfonyl-3-piperidyl)benzimidazol-5-yl]-5H-pyrrolo[2,3-b]pyrazine] was run?
Its GI50 is 0.0001 to 1 µM.

How did the GI50 turn out when `Cn1cnc2ccc(-c3c[nH]c4nnc(Cl)cc34)cc21` [P-313, 3-chloro-5-(3-methylbenzimidazol-5-yl)-7H-pyrrolo[2,3-c]pyridazine] was run?
Its GI50 is 0.0001 to 1 µM.

For `O=S1(=O)CCCN1c1cc(-c2cnc3[nH]cc(-c4ccc5ncn(C6CCCNC6)c5c4)c3c2)ccn1` (stereo not drawn) [P-311, 2-[4-[3-[3-(3-piperidyl)benzimidazol-5-yl]-1H-pyrrolo[2,3-b]pyridin-5-yl]-2-pyridyl]-1,2-thiazolidine 1,1-dioxide], which GI50 is on record?
Its GI50 is 0.0001 to 1 µM.

Which GI50 does the source give for `COc1cc(-c2cc3c(-c4ccc5ncn(C(C)(C)C)c5c4)c[nH]c3nn2)ccn1` [P-315, 5-(3-tert-butylbenzimidazol-5-yl)-3-(2-methoxy-4-pyridyl)-7H-pyrrolo[2,3-c]pyridazine] here?
Its GI50 is 0.0001 to 1 µM.

For `CCN1CCN(c2ccc(-c3cnc4[nH]cc(-c5ccc6ncn(C(C)(C)C)c6c5)c4n3)cn2)CC1` [P-365, 7-(3-tert-butylbenzimidazol-5-yl)-2-[6-(4-ethylpiperazin-1-yl)-3-pyridyl]-5H-pyrrolo[2,3-b]pyrazine], which GI50 is on record?
The GI50 was 0.0001 to 1 µM.

For `COc1cc(C#Cc2cnc3[nH]cc(-c4ccc5ncn(C(C)(C)C)c5c4)c3n2)ccn1` [P-279, 7-(1-(tert-butyl)-1H-benzo[d]imidazol-6-yl)-2-((2-methoxypyridin-4-yl)ethynyl)-5H-pyrrolo[2,3-b]pyrazine], which GI50 is on record?
The GI50 was 0.0001 to 1 µM.

`CC(C)(C)n1cnc2ccc(-c3c[nH]c4ncc(-c5ccc(N6CCCCC6)nc5)nc34)cc21` [P-347, 7-(1-(tert-butyl)-1H-benzo[d]imidazol-6-yl)-2-(6-(piperidin-1-yl)pyridin-3-yl)-5H-pyrrolo[2,3-b]pyrazine] was tested. Which GI50 did it give?
The GI50 was 0.0001 to 1 µM.

Which GI50 does the source give for `CC(C)(C)n1cnc2ccc(-c3c[nH]c4ncc(-c5cccc(N6CCCS6(=O)=O)c5)cc34)cc21` [P-278, 2-[3-[3-(3-tert-butylbenzimidazol-5-yl)-1H-pyrrolo[2,3-b]pyridin-5-yl]phenyl]-1,2-thiazolidine 1,1-dioxide] here?
Its GI50 is 0.0001 to 1 µM.

How did the GI50 turn out when `CC(C)(C)n1cnc2ccc(-c3c[nH]c4ncc(-c5ccc(N6CCCS6(=O)=O)cc5)cc34)cc21` [P-320, 2-[4-[3-(3-tert-butylbenzimidazol-5-yl)-1H-pyrrolo[2,3-b]pyridin-5-yl]phenyl]-1,2-thiazolidine 1,1-dioxide] was run?
The GI50 was 0.0001 to 1 µM.

How did the GI50 turn out when `COc1cc(-c2cnc3[nH]cc(-c4ccc5ncn(C6(C(F)(F)F)CC6)c5c4)c3n2)ccn1` [P-312, 2-(2-methoxy-4-pyridyl)-7-[3-[1-(trifluoromethyl)cyclopropyl]benzimidazol-5-yl]-5H-pyrrolo[2,3-b]pyrazine] was run?
Its GI50 is 0.0001 to 1 µM.

For `c1cc(N2CCOCC2)ncc1-c1cnc2[nH]cc(-c3ccc4ncn(C5CCCNC5)c4c3)c2n1` (stereo not drawn) [P-325, 4-[5-[7-[3-(3-piperidyl)benzimidazol-5-yl]-5H-pyrrolo[2,3-b]pyrazin-2-yl]-2-pyridyl]morpholine], which GI50 is on record?
Its GI50 is 0.0001 to 1 µM.

`CC(C)(C)n1cnc2ccc(-c3c[nH]c4ncc(-c5ccnc(N6CCCS6(=O)=O)c5)nc34)cc21` [P-294, 2-[4-[7-(3-tert-butylbenzimidazol-5-yl)-5H-pyrrolo[2,3-b]pyrazin-2-yl]-2-pyridyl]-1,2-thiazolidine 1,1-dioxide] was tested. Which GI50 did it give?
The GI50 was 0.0001 to 1 µM.

With `c1nc(N2CCOCC2)ncc1-c1cnc2[nH]cc(-c3ccc4ncn(C5CCCNC5)c4c3)c2c1` (stereo not drawn) [P-277, 4-[5-[3-[3-(3-piperidyl)benzimidazol-5-yl]-1H-pyrrolo[2,3-b]pyridin-5-yl]pyrimidin-2-yl]morpholine] as the molecule, how does the GI50 read?
The GI50 was 0.0001 to 1 µM.

For `CN1CCN(c2cccc(-c3cnc4[nH]cc(-c5ccc6ncn(C(C)(C)C)c6c5)c4n3)c2)CC1` [P-331, 7-(3-tert-butylbenzimidazol-5-yl)-2-[3-(4-methylpiperazin-1-yl)phenyl]-5H-pyrrolo[2,3-b]pyrazine], which GI50 is on record?
The GI50 was 0.0001 to 1 µM.

How did the GI50 turn out when `COc1ncc(-c2cnc3[nH]cc(-c4ccc5ncn(C6CCCNC6)c5c4)c3c2)cn1` (stereo not drawn) [P-276, 5-(2-methoxypyrimidin-5-yl)-3-[3-(3-piperidyl)benzimidazol-5-yl]-1H-pyrrolo[2,3-b]pyridine] was run?
The GI50 was 10 to 200 µM.

How did the GI50 turn out when `CC(C)(C)n1cnc2ccc(-c3c[nH]c4ncc(-c5ccc(N6CCOCC6)nc5)cc34)cc21` [P-322, 4-[5-[3-(3-tert-butylbenzimidazol-5-yl)-1H-pyrrolo[2,3-b]pyridin-5-yl]-2-pyridyl]morpholine] was run?
The GI50 was 0.0001 to 1 µM.

For `CC(C)(C)n1cnc2ccc(-c3c[nH]c4ncc(-c5cnc(N6CCC(F)(F)CC6)nc5)nc34)cc21` [P-357, 7-(3-tert-butylbenzimidazol-5-yl)-2-[2-(4,4-difluoro-1-piperidyl)pyrimidin-5-yl]-5H-pyrrolo[2,3-b]pyrazine], which GI50 is on record?
The GI50 was 0.0001 to 1 µM.

With `Cc1cc(C#Cc2cnc3[nH]cc(-c4ccc5ncn(C(C)(C)C)c5c4)c3n2)cc(C)n1` [P-282, 7-(3-tert-butylbenzimidazol-5-yl)-2-[2-(2,6-dimethyl-4-pyridyl)ethynyl]-5H-pyrrolo[2,3-b]pyrazine] as the molecule, how does the GI50 read?
Its GI50 is 0.0001 to 1 µM.

With `Cc1ncc(C#Cc2cnc3[nH]cc(-c4ccc5ncn(C(C)(C)C)c5c4)c3n2)cn1` [P-284, 7-(3-tert-butylbenzimidazol-5-yl)-2-[2-(2-methylpyrimidin-5-yl)ethynyl]-5H-pyrrolo[2,3-b]pyrazine] as the molecule, how does the GI50 read?
The GI50 was 0.0001 to 1 µM.

For `COc1cc(C#Cc2cnc3[nH]cc(-c4ccc5ncn(C6CCCNC6)c5c4)c3n2)ccn1` (stereo not drawn) [P-280, 2-((2-methoxypyridin-4-yl)ethynyl)-7-(1-(piperidin-3-yl)-1H-benzo[d]imidazol-6-yl)-5H-pyrrolo[2,3-b]pyrazine], which GI50 is on record?
Its GI50 is 0.0001 to 1 µM.

With `CC(C)(C)n1cnc2ccc(-c3c[nH]c4ncc(-c5cccc(N6CCOCC6)c5)cc34)cc21` [P-316, 4-[3-[3-(3-tert-butylbenzimidazol-5-yl)-1H-pyrrolo[2,3-b]pyridin-5-yl]phenyl]morpholine] as the molecule, how does the GI50 read?
Its GI50 is 0.0001 to 1 µM.

Which GI50 does the source give for `CCN1CCN(c2ccc(-c3cnc4[nH]cc(-c5ccc6ncn(C7CCCNC7)c6c5)c4n3)cc2)CC1` (stereo not drawn) [P-359, 2-[4-(4-ethylpiperazin-1-yl)phenyl]-7-[3-(3-piperidyl)benzimidazol-5-yl]-5H-pyrrolo[2,3-b]pyrazine] here?
The GI50 was 0.0001 to 1 µM.

How did the GI50 turn out when `CCN1CCN(c2cccc(-c3cnc4[nH]cc(-c5ccc6ncn(C(C)(C)C)c6c5)c4n3)c2)CC1` [P-330, 7-(3-tert-butylbenzimidazol-5-yl)-2-[3-(4-ethylpiperazin-1-yl)phenyl]-5H-pyrrolo[2,3-b]pyrazine] was run?
Its GI50 is 0.0001 to 1 µM.
